# Source: patent publication USRE48335E1, “Polymyxin derivatives as antimicrobial compounds” (priority 2014, dated 2020)
# Positions of bridges follow the written chain, without caps; N, C: chain ends. Non-standard residues stand in square brackets, D forms with d. Residues, ends and D or L forms follow the SMILES beside them. *: point of attachment. Benzoyl(2,3-Cl2) = O=C(c1cccc(Cl)c1Cl)*; X23 = O=C(c1c(Cl)cc(Cl)cc1Cl)*; Dab = NCC[C@H](N)C(=O)O; Abu = CC[C@H](N)C(=O)O; Dap = NC[C@H](N)C(=O)O; PhAc = O=C(Cc1ccccc1)*
# Experiments:
# Acinetobacter baumannii = conditions: broth microdilution in CAMHB; for Minimum inhibitory concentration, Ab A ATCC 17978: Acinetobacter baumannii ATCC 17978; for Minimum inhibitory concentration, Ab ATCC 19606: Acinetobacter baumannii ATCC 19606; for Minimum inhibitory concentration, Ab FADDI-AB034: Acinetobacter baumannii FADDI-AB034
# In short: (§1)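 Minimum inhibitory concentrations come from CLSI-standard broth microdilution in cation-adjusted Mueller-Hinton broth.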
# Enterobacter cloacae = conditions: broth microdilution in CAMHB; for Minimum inhibitory concentration, Ec FADDI-EC001: Enterobacter cloacae FADDI-EC001; for Minimum inhibitory concentration, Ec FADDI-EC003: Enterobacter cloacae FADDI-EC003; for Minimum inhibitory concentration, Ec FADDI-EC006: Enterobacter cloacae FADDI-EC006
# In short: as §1
# Pseudomonas aeruginosa = conditions: broth microdilution in CAMHB; for Minimum inhibitory concentration, Pa ATCC 27853: Pseudomonas aeruginosa ATCC 27853; for Minimum inhibitory concentration, Pa FADDI-PA022: Pseudomonas aeruginosa FADDI-PA022; for Minimum inhibitory concentration, Pa FADDI-PA025: Pseudomonas aeruginosa FADDI-PA025
# In short: as §1
# [1] = Nephrotoxicity in a mouse model (kidney histology score); type: in vivo; set-up: key to Max Overall Kidney Histology Score: product of % score and grade score (grade 1-3); 30 to <45 = moderate; conditions: mice, subcutaneous 12 mg base/kg, 6 doses in one day every 2 h; for Max Overall Kidney Histology Score: kidney ~20 h after last dose, product of percentage score and grade score; for Max Kidney Histology Score: semiquantitative score (SQS) 0 to +5
# Procedure: PMB sulphate (Batch 20120204) and colistin sulphate (Batch 20120719) were supplied by Betapharma (Shanghai Co., Ltd, China). […] At ˜20 h after the last dose, mice were euthanised by inhalation of an overdose of isoflurane. […] The formalin-fixed kidneys were then sent to the Australian Phenomics Network-Histopathology and Organ Pathology (The University of Melbourne, Parkville, VIC, Australia) for histological examination. The samples were examined by a pathologist who was blind to the treatment groups. Lesions were rated as follows: mild acute tubular damage with tubular dilation, prominent nuclei and a few pale […] tubular casts (Grade 1); severe acute tubular damage with necrosis of tubular epithelial cells and numerous tubular casts (Grade 2); acute cortical necrosis/infarction of tubules and glomeruli with or without papillary necrosis (Grade 3). […] The overall kidney histology score was calculated as the product of percentage score and grade score. […] These scores were assigned as follows: […] SQS+3=moderate damage (overall score, 30 to <45); […]
Compound,"Minimum inhibitory concentration, Ab A ATCC 17978 (Acinetobacter baumannii) [µg/mL]","Minimum inhibitory concentration, Ab ATCC 19606 (Acinetobacter baumannii) [µg/mL]","Minimum inhibitory concentration, Ab FADDI-AB034 (Acinetobacter baumannii) [µg/mL]","Minimum inhibitory concentration, Ec FADDI-EC001 (Enterobacter cloacae) [µg/mL]","Minimum inhibitory concentration, Ec FADDI-EC003 (Enterobacter cloacae) [µg/mL]","Minimum inhibitory concentration, Ec FADDI-EC006 (Enterobacter cloacae) [µg/mL]","Minimum inhibitory concentration, Pa ATCC 27853 (Pseudomonas aeruginosa) [µg/mL]","Minimum inhibitory concentration, Pa FADDI-PA022 (Pseudomonas aeruginosa) [µg/mL]","Minimum inhibitory concentration, Pa FADDI-PA025 (Pseudomonas aeruginosa) [µg/mL]",nephrotoxicity in the in vivo nephrotoxicity model ([1]; kidney histology ~20 h after last dose),Max Overall Kidney Histology Score [1],Max Kidney Histology Score [1]
polymyxin B [reference compound],1,1,0.5,0.25,0.5,0.5,1,1,1,severe nephrotoxicity,60.0,"+5 (SQS+5=severe damage (overall score, >60))"
CC[C@@H]1NC(=O)[C@@H](CC(C)C)NC(=O)[C@H](CCN)NC(=O)[C@@H](NC(=O)[C@H](CN)NC(=O)[C@@H](NC(=O)[C@H](CCN)NC(=O)Cc2ccccc2)[C@@H](C)O)CCNC(=O)[C@H]([C@@H](C)O)NC(=O)[C@H](CCN)NC(=O)[C@H](CCN)NC1=O [Compound 78] (PhAc-[Dab]T[Dap][Dab][Dab][dL][Abu][Dab][Dab]T; lactam 4-C),2,4,2,0.25,0.25,0.5,1,0.5,4,–,0.0,"0 (SQS 0=no significant change (overall score, <1))"
"CC[C@@H]1NC(=O)[C@@H](CC(C)C)NC(=O)[C@H](CCN)NC(=O)[C@@H](NC(=O)[C@H](CN)NC(=O)[C@@H](NC(=O)[C@H](CCN)NC(=O)c2cccc(Cl)c2Cl)[C@@H](C)O)CCNC(=O)[C@H]([C@@H](C)O)NC(=O)[C@H](CCN)NC(=O)[C@H](CCN)NC1=O [Compound 90] ({Benzoyl(2,3-Cl2)}-[Dab]T[Dap][Dab][Dab][dL][Abu][Dab][Dab]T; lactam 4-C)",1,2,8,0.5,8,0.25,0.5,2,2,–,0.0,"0 (SQS 0=no significant change (overall score, <1))"
CC[C@@H]1NC(=O)[C@@H](CC(C)C)NC(=O)[C@H](CCN)NC(=O)[C@@H](NC(=O)[C@H](CN)NC(=O)[C@@H](NC(=O)[C@H](CCN)NC(=O)c2c(Cl)cc(Cl)cc2Cl)[C@@H](C)O)CCNC(=O)[C@H]([C@@H](C)O)NC(=O)[C@H](CCN)NC(=O)[C@H](CCN)NC1=O [Compound 95] (X23-[Dab]T[Dap][Dab][Dab][dL][Abu][Dab][Dab]T; lactam 4-C),0.25,0.25,0.25,<0.125,0.25,1,2,4,2,–,0.0,"0 (SQS 0=no significant change (overall score, <1))"
